Read-outs that look alike come from different tables or passages of the source.
Assays:
[1] = target: T1, GT1a D168A NS3/4A protease (UniProt P27958, D1194A, species not given); format: biochemical, Hepatitis C virus
T1 construct: rows headed: Ki (nM) D168A; Ki D168A; other: D168A variant
Summary of the method: (§1)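 Enzyme (GT1a wild type or D168A mutant, 2 nM) was preincubated with inhibitor dilutions for 1 h at room temperature in pH 7.5 Tris buffer with glycerol, DTT, LDAO and 4% DMSO.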

[2] = target: GT1a D168A NS3/4A protease; format: biochemical, Hepatitis C virus
Summary of the method: as §1

[3] = target: T2, wild-type GT1a NS3/4A protease (UniProt P27958); format: biochemical, Hepatitis C virus
T2 construct: Ki WT; other: wild-type HCV NS3/4A protease
Summary of the method: as §1

[4] = test system: wild-type HCV replicon in Huh7 cells; assay: Cell-based drug susceptibility (replicon) assay, wild-type; conditions: Hepatitis C virus, read-out: Replicon EC50 (nM) WT
Summary of the method: (§2)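 Chimeric Con1/H77-NS3 luciferase replicon, electroporated into Huh7 cells and grown with rising protease inhibitor levels; luciferase read 96 h later.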

[5] = test system: HCV replicon A156T variant in Huh7 cells; assay: microbe, parasite or virus in culture; format: cell-based, Hepatitis C virus; conditions: for EC50: Hepatitis C virus
Summary of the method: as §2

[6] = test system: HCV replicon D168A variant in Huh7 cells; assay: microbe, parasite or virus in culture; format: cell-based, Hepatitis C virus; conditions: for EC50: Hepatitis C virus
Summary of the method: as §2

[7] = test system: HCV replicon R155K variant in Huh7 cells; assay: microbe, parasite or virus in culture; format: cell-based, Hepatitis C virus; conditions: for EC50: Hepatitis C virus
Summary of the method: as §2

[8] = test system: HCV replicon D168V variant in Huh7 cells; assay: microbe, parasite or virus in culture; format: cell-based, Hepatitis C virus; conditions: for EC50: Hepatitis C virus
Summary of the method: as §2

[9] = target: GT1a R155K NS3/4A protease (UniProt P27958, R1181K, species not given); format: biochemical, Hepatitis C virus
Summary of the method: (§3)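 2 nM NS3/4A protease (GT1a, R155K and D168A constructs) pre-incubated 1 h at room temperature with increasing inhibitor concentrations in 50 mM Tris pH 7.5, 5% glycerol, 10 mM DTT, 0.6 mM LDAO, 4% DMSO. Three independent data sets per inhibitor and construct; ΔG of binding derived from Ki as ΔG=RTlnKi.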

[10] = target: GT1a R155K NS3/4A protease; format: biochemical, Hepatitis C virus; conditions: fold change in Ki, R155K relative to WT
Summary of the method: as §3

[11] = test system: drug resistant HCV variants (R155K, A156T, D168A, D168V); assay: Replicon antiviral assays, collective statements on drug resistant variants; format: cell-based, Hepatitis C virus; conditions: range over all variants tested
Procedure: Mutations (R155K, A516T, D168A and D168V) were constructed by site-directed mutagenesis using a Con1 (genotype 1b) luciferase reporter replicon containing the H77 (genotype 1a) NS3 sequence.
Replicon RNA of each protease variant was introduced into Huh7 cells by electroporation. Replication was then assessed in the presence of increasing concentrations of protease inhibitors by measuring luciferase activity (relative light units) 96 h after electroporation.
Mutations (R155K, D168A and A156T) were constructed by site-directed mutagenesis using a Con1 (genotype 1b) luciferase reporter replicon containing the H77 (genotype 1a) NS3 sequence.^6 Replicon RNA of each protease variant was introduced into Huh7 cells by electroporation. Replication was then assessed in the presence of increasing concentrations of protease inhibitors by measuring luciferase activity (relative light units) 96 h after electroporation.

[12] = rcm bond; 15-membered ring; Zhan 1b; 1,2-DCE; 6.3 mM; 70.0 °C
[13] = target: T3, GT1a D168A NS3/4A protease (UniProt P27958, C1185S/D1194A, species not given); format: biochemical, Hepatitis C virus; conditions: read-out: Ki (nM) GT1a D168A NS3/4A Protease
T3 construct: Ki (nM) GT1a D168A NS3/4A Protease
Summary of the method: as §1

[14] = target: T4, GT1a D168A NS3/4A protease (UniProt P27958, C1185S/D1194A, species not given); format: biochemical, Hepatitis C virus; conditions: read-out: Ki (nM) D168A; Table 6; P4/P4-P5 modified macrocycles
T4 construct: P4/P4-P5 modified macrocycles
Summary of the method: as §1

[15] = target: T5, wild-type GT1a NS3/4A protease (UniProt P27958, C1185S, species not given); format: biochemical, Hepatitis C virus; conditions: read-out: Ki (nM) GT1a WT NS3/4A Protease
T5 construct: Ki (nM) GT1a WT NS3/4A Protease
Summary of the method: as §1

[16] = target: T6, wild-type GT1a NS3/4A protease (UniProt P27958, C1185S, species not given); format: biochemical, Hepatitis C virus; conditions: read-out: Ki (nM) GT1a WT; Table 6; P4/P4-P5 modified macrocycles
T6 construct: P4/P4-P5 modified macrocycles
Summary of the method: as §1

[17] = target: T7, GT3a NS3/4A protease (Hepatitis C virus genotype 3a, UniProt Q81495); assay: biochemical
T7 construct: drug-resistant variant D168A, and GT3a NS3/4A protease; made in house; host or cells: Escherichia coli BL21(DE3)
Summary of the method: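 Protease at 2 nM pre-incubated 1 h at room temperature with increasing inhibitor concentrations in 50 mM Tris, 5% glycerol, 10 mM DTT, 0.6 mM LDAO, 4% DMSO. Three independent data sets per inhibitor and construct.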

[18] = Table 4, relative to WT replicon

T7 sequence (Q81495 1033-1214): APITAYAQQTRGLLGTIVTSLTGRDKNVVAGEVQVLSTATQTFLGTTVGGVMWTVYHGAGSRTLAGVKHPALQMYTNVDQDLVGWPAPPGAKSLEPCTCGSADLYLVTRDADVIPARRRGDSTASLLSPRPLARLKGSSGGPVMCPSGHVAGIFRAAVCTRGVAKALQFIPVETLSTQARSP

C=C[C@@H]1C[C@]1(NC(=O)[C@@H]1C[C@@H](Oc2nc3cc(OC)ccc3nc2C)CN1C(=O)[C@@H](NC(=O)OC1CCCC1)C(C)(C)C)C(=O)NS(=O)(=O)C1(C)CC1 [Compound 12b, Cyclopentyl ((S)-1-((2S,4R)-4-((7-methoxy-3-methylquinoxalin-2-yl)oxy)-2-(((1R,2S)-1-(((1-methylcyclopropyl)sulfonyl)carbamoyl)-2-vinylcyclopropyl)carbamoyl)pyrrolidin-1-yl)-3,3-dimethyl-1-oxobutan-2-yl)carbamate]
Ki ([1]; read-out: Ki (nM) D168A, Table 8, linear inhibitors): 140 ± 13 nM
Ki ([1]; read-out: Ki D168A, D168A variant): 140 ± 13 nM
Ki D168A (fold change) ([2]; fold change in Ki, D168A relative to WT): 20
Ki ([3]; read-out: Ki (nM) WT, Table 8, linear inhibitors): 7.1 ± 1.1 nM
Ki ([3]; read-out: Ki WT, wild-type HCV NS3/4A protease): 7.1 ± 1.1 nM
EC50 ([4]; Huh-7, Table 9): 4.5 nM
EC50 ([5]; Huh-7, read-out: Replicon EC50 (nM) A156T, Table 9): 87 nM
Replicon EC50 (Fold change) A156T ([5]; Table 9, relative to WT): (19) fold
EC50 ([6]; Huh-7, read-out: Replicon EC50 (nM) D168A, Table 9): 45 nM
Replicon EC50 (Fold change) D168A ([6]; Table 9, relative to WT): (10) fold
EC50 ([7]; Huh-7, read-out: Replicon EC50 (nM) R155K, Table 9): 28 nM
Replicon EC50 (Fold change) R155K ([7]; Table 9, relative to WT): (6.2) fold
EC50 ([8]; Huh-7, read-out: Replicon EC50 (nM) D168V, Table 9): 59 nM
Replicon EC50 (Fold change) D168V ([8]; Table 9, relative to WT): (13) fold
Ki ([9]; read-out: Ki (nM) R155K, Table 8, linear inhibitors): 10 ± 1.3 nM
Ki ([9]; read-out: Ki R155K, R155K variant): 10 ± 1.3 nM
Ki R155K (fold change) [10]: 1.4
fold loss in replicon potency against drug resistant variants compared to WT [11]: 5-20 fold

COc1ccc2nc(C)c(O[C@@H]3C[C@H]4C(=O)N[C@]5(C(=O)NS(=O)(=O)C6(C)CC6)C[C@H]5/C=C\CCCCC[C@H](NC(=O)OC(C)(C)C)C(=O)N4C3)nc2c1 [Compound 19b, tert-Butyl ((2R,6S,13aS,14aR,16aS,Z)-2-((7-methoxy-3-methylquinoxalin-2-yl)oxy)-14a-(((1-methylcyclopropyl)sulfonyl)carbamoyl)-5,16-dioxo-1,2,3,5,6,7,8,9,10,11,13a,14,14a,15,16,16a-hexadecahydrocyclopropa[e]pyrrolo[1,2-a][1,4]diazacyclopentadecin-6-yl)carbamate]
ring closure, isolated yield [12]: 70%
Ki ([13]; Table 1): 52 nM
Ki ([13]; Table 3): 52 ± 2.4 nM
Ki [14]: 52 nM
Ki (Fold change) GT1a D168A NS3/4A Protease ([2]; Table 3, Ki D168A relative to GT1a WT): (14) fold
Ki (Fold Change) D168A ([2]; Table 6, with respect to GT1a wild-type): (14) fold
Ki ([15]; Table 1): 3.6 nM
Ki ([15]; Table 3): 3.6 nM
Ki [16]: 3.6 nM
Ki [17]: 119 nM
Ki (Fold change) GT3a NS3/4A Protease ([17]; Table 3, Ki GT3a relative to GT1a WT): (33) fold
Ki ([17]; read-out: Ki (nM) GT3a NS3/4A Protease, Table 3): 119 ± 18 nM
EC50 ([4]; Huh-7, 96 h, Table 2, Huh7 cells, luciferase 96 h): 0.3 nM
EC50 ([4]; Huh-7, Table 4): 0.3 nM
EC50 ([5]; Huh-7, 96 h, read-out: Replicon EC50 (nM) A156T, Table 2, Huh7 cells, luciferase 96 h): 1.57 nM
EC50 ([5]; Huh-7, read-out: Replicon EC50 (nM) A156T, Table 4): 1.57 nM
Replicon EC50 (Fold change) A156T [5, 18]: (5) fold
EC50 ([6]; Huh-7, 96 h, read-out: Replicon EC50 (nM) D168A, Table 2, Huh7 cells, luciferase 96 h): 2.37 nM
EC50 ([6]; Huh-7, read-out: Replicon EC50 (nM) D168A, Table 4): 2.37 nM
Replicon EC50 (Fold change) D168A [6, 18]: (8) fold
EC50 ([7]; Huh-7, 96 h, read-out: Replicon EC50 (nM) R155K, Table 2, Huh7 cells, luciferase 96 h): 0.8 nM
EC50 ([7]; Huh-7, read-out: Replicon EC50 (nM) R155K, Table 4): 0.8 nM
Replicon EC50 (Fold change) R155K [7, 18]: (3) fold
EC50 ([8]; Huh-7, 96 h, read-out: Replicon EC50 (nM) D168V, Table 2, Huh7 cells, luciferase 96 h): 1.6 nM
EC50 ([8]; Huh-7, read-out: Replicon EC50 (nM) D168V, Table 4): 1.6 nM
Replicon EC50 (Fold change) D168V [8, 18]: (5) fold
